Results from patent US8822533B1, “Methods and compositions for repelling and/or killing insects” (The United States of America, as represented by the …, priority 2011, dated 2014).

Columns and labels:
[1] = test system: bed bugs (Cimex lectularius); assay: Bed bug mortality on treated filter paper; type: in vivo; conditions: 24 h
Ae. aegypti mosquitoes = assay: Sleeve bite protection assay on treated uniform fabric, mosquitoes; type: in vivo, Aedes aegypti (Orlando, 1952)
Protocol: Biological Evaluation: Bite protection assays were conducted with laboratory-reared 7-12 day old mosquitoes or sand flies. The species used throughout these studies are Aedes aegypti (Orlando, 1952) and Phlebotomus papatasi sand flies (Jerusalem, 1983). Females were pre-selected using either a hand draw box or a mechanical aspirator. An assay was conducted by wearing sewn sleeves made from clothing material. Treated specimens were assayed with untreated controls to correct for the bite resistance afforded by material construction and composition. The untreated control was tested at the beginning of the experiment, followed by successively higher candidate repellent concentrations on sleeves. Sleeves were sewn from a cut out single ply trapezoidal pattern (33.2 cm×21 cm×25.5 cm height) of material. […] Permethrin was 35:65cis: trans, 95.85% technical material. Experimental repellents were received as neat samples with <5% impurities. The treatment occurred by dissolution of repellent in suitable quantity of acetone to saturate the clothing, but minimizing excess solution. Excess solution was quantified and this amount of excess was then used to calculate the estimated amount of repellent applied to the material. […] The photoperiod was 12:12. The mosquito cages were approximately 60000 cm^3 and each contained 175 to 225 female mosquitoes. […] Cages for sand fly work were slightly smaller (15000 cm^3) and constructed of acrylic for filming purposes and with screens on the exterior edges to allow air flow through the system. About 20-40 sand flies were released in cages for each assay. Assays started when the sleeved arm was inserted through the sleeve into the cage. Normally the hand was protected by a glove, but there were situations (i.e. sand fly data presented here) when the ability of a repellent to protect the untreated hand was determined. The assay periods were 15 min for the mosquitoes and 25-30 minutes for sand flies. The insects were allowed to land, probe and possibly bloodfeed during this time. At the conclusion of the experiment, all insects were knocked down or aspirated and the percentage that bloodfed of the total female test population in the cage was recorded. The protect level was calculated by Abbott's formula as a percentage reduction in bites compared to the untreated fabric control sleeve. Specific conditions for bioassays are noted with corresponding data contained in the Tables.

[2] = test system: Mosquitoes, either Aedes aegypti (Liverpool) or Anopheles stephensi Liston; assay: K&D module in vitro bioassay: biting protection, knockdown and mortality; type: in vivo
Protocol: In vitro bioassays were conducted as described by Klun et. al. (Klun, J. A., et al., J. Med. Entomol., 40: 293-299 (2005)). Each test replicate consisted of 3 treatments: a control (EtOH); a standard (Deet, 4.54 nmol/μl); and an experimental compound (pyrethroid analogs, 4.54 nmol/ul). The 3 treatments were randomly assigned to consecutive cells in 2, 6-cell reservoirs connected in series to a single water-bath pump; thus, 4 replicates could be tested/run. Tests were performed in an Air Science USA hood, with an air movement velocity of approx. 110-120 ft./min., temperature of 25-27° C., and RH of 15-25%. A 6-celled reservoir was connected to and heated by a constant-temperature (38° C.) water circulator (Lauda E100, Wobser GMGH and Co., Konigshofell, Germany).
Prior to each test, the upper surface of each reservoir was coated with a thin layer of high-vacuum silicone grease (Dow Corning Corp., Midland, Mich.), and the cells then filled (approx. 6 ml. capacity) or topped-off with either: (1) expired human red blood cells suspended in citrate-phosphate-dextrose-adenine (CPDA) solution, not more than 1 month past expiration date, and to which 110 mg ATP/35 ml. blood-CPDA had been added on the day of testing; or (2) CPDA+ATP×^−3, usually made up or diluted to 10^−3 ATP on the day of testing. The filled cells were then covered with an Edicol collagen membrane (Devro, Sandy Run, S.C.) strip, and then with a just-treated (110 μl of 4.54 nmol/μl treatment or control solution) organdy cloth (G Street Fabrics, Rockville, Md.) strip. Mosquitoes used in tests were either Aedes aegypti_(Liverpool) or Anopheles stephensi_Liston. K&D modules containing 5 adult females/cell were placed over a Teflon separator atop each reservoir; the sliding floors opened allowing access to the treated organdy cloth and membrane-covered cell; and the number of mosquitoes biting (proboscis inserted through the cloth) and/or observed to be engorged within each cell at the end of a 3-5 min. exposure period was recorded. Mosquitoes were used only once in a test, and then frozen and discarded.
Only tests in which 3 or more females fed in the control cell were analyzed, as lower feeding rates are indicative of substandard feeding readiness of that group of mosquitoes.
[…] Data were collected to record knockdown in 6 minutes, one hour and 24 hours post exposure.

[3] = test system: bed bugs (Cimex lectularius); assay: Bed bug mortality on treated filter paper; type: in vivo; conditions: Cimex lectularius, 24 h
Protocol: Knockdown data and mortality for volatile pyrethroids against bed bugs (Cimex lectularius): Compounds were dissolved in acetone to yield concentrations of 100 μg/cm^2, 10 μg/cm^2, and 1 μg/cm^2 and 47 mm filter paper disks were treated. Acetone-treated filter paper was used as a negative control. Mixed stages (nymphs and adults) of a laboratory colony of the bed bug Cimex lectularius were placed on the treated filter paper in glass Petri dishes and mortality was recorded 24 h later, at which time bed bugs were removed to untreated surfaces. 24 h after this transfer another assessment of mortality was made to see if any dead or moribund bugs had recovered.

[4] = ACU sleeve, stored one year then tested, concentrations as E1

CC(C)=C[C@@H]1[C@@H](C(=O)OCc2c(F)c(F)c(C)c(F)c2F)C1(C)C [TL-I-105]
0 #: Blood-fed # (Ae. aegypti mosquitoes; ACU (50/50 NYCO) sleeve, glove on hand, 15 min, permethrin 0.118, transfluthrin 0.108, TL-I-107 0.107, TL-I-141 0.109, TL-I-105 0.107, TL-I-73 0.102 mg/cm^2) | Blood-fed # (Ae. aegypti mosquitoes; ACU sleeve, treated specimens stored in refrigerator for one year then tested, concentrations as E1)
0.0%: Fed (%) (Ae. aegypti mosquitoes; ACU (50/50 NYCO) sleeve, glove on hand, concentrations as E1) | Fed (%) (Ae. aegypti mosquitoes; [4])
10%: mortality at 1 µg/cm2 [3]
100%: mortality at 5 µg/cm2 [1] | Bite Protection (%) (Ae. aegypti mosquitoes; ACU (50/50 NYCO) sleeve, glove on hand, Abbott's formula vs untreated sleeve, concentrations as E1) | Bite Protection (%) (Ae. aegypti mosquitoes; [4]) | Knockdown 24 hours (%) ([2]; 2.5 nM\cm^2, K&D module) | Not feeding 3 minutes (%) ([2]; 2.5 nM\cm^2, K&D module) | Knockdown 1 hour (%) ([2]; 2.5 nmol/cm^2, K&D module) | Knockdown 6 min (%) ([2]; 25 nM\cm^2, K&D module) | Knockdown 24 hours (%) ([2]; 25 nM\cm^2, K&D module) | Not feeding 3 minutes (%) ([2]; 25 nM\cm^2, K&D module) | Knockdown 1 hour (%) ([2]; 25 nmol/cm^2, K&D module) | mortality at 0.0025 µM ([2]; Aedes aegypti, 24 h) | mortality at 0.025 µM ([2]; Aedes aegypti, 48 h) | mortality at 10 µg/cm2 [3] | mortality at 100 µg/cm2 [3]
98%: Knockdown 6 min (%) ([2]; 2.5 nM\cm^2, K&D module)
